Reference: ChEMBL document CHEMBL1201861, “Genomics of Drug Sensitity in Cancer screening data, Wellcome Trust Sanger Institute”

How the values were obtained:
Assay in all cases: cells
[1] = tested on: D-542MG; type: functional, cell-based; settings: Homo sapiens
Description: SANGER: Inhibition of human D-542MG cell growth in a cell viability assay.

[2] = tested on: DOK; type: functional, cell-based; settings: Homo sapiens;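 further: cell viability assay read-out, values reflect inhibition of cell growth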
Description: SANGER: Inhibition of human DOK cell growth in a cell viability assay.

[3] = tested on: Daoy; type: functional, cell-based; settings: Homo sapiens;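 further: daoy cell growth inhibition, read out as cell viability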
Description: SANGER: Inhibition of human Daoy cell growth in a cell viability assay.

[4] = tested on: Detroit 562; type: functional, cell-based; settings: Homo sapiens;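 further: growth inhibition of human Detroit 562 cells, read out by a cell viability assay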
Description: SANGER: Inhibition of human Detroit562 cell growth in a cell viability assay.

[5] = tested on: EFO-21; type: functional, cell-based; settings: Homo sapiens;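 further: growth inhibition of EFO-21 cells measured with a viability assay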
Description: SANGER: Inhibition of human EFO-21 cell growth in a cell viability assay.

[6] = tested on: HC-1; type: functional, cell-based, Homo sapiens; settings: Homo sapiens, HC-1;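 further: growth inhibition of HC-1 cells measured by a cell viability assay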
Description: SANGER: Inhibition of human HC-1 cell growth in a cell viability assay.

[7] = tested on: HCT-15; type: functional, cell-based; settings: Homo sapiens;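 further: cell viability readout, IC50 reflecting suppression of HCT-15 cell growth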
Description: SANGER: Inhibition of human HCT-15 cell growth in a cell viability assay.

[8] = tested on: HMV-2 cell line; type: functional, cell-based; settings: Homo sapiens;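 further: growth inhibition of HMV-II cells, read out with a cell viability assay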
Description: SANGER: Inhibition of human HMV-II cell growth in a cell viability assay.

[9] = tested on: HN; type: functional, cell-based; settings: Homo sapiens
Description: SANGER: Inhibition of human HN cell growth in a cell viability assay.

[10] = tested on: HSC-2; type: functional, cell-based; settings: Homo sapiens;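 further: growth inhibition of human HSC-2 cells, read out by a cell viability assay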
Description: SANGER: Inhibition of human HSC-2 cell growth in a cell viability assay.

[11] = tested on: HT-29; type: functional, cell-based; settings: Homo sapiens;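 further: growth inhibition of human HT-29 cells, read out by a cell viability assay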
Description: SANGER: Inhibition of human HT-29 cell growth in a cell viability assay.

[12] = tested on: Huh-7; type: functional, cell-based; settings: Homo sapiens;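 further: HuH-7 cell growth inhibition, read out with a cell viability assay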
Description: SANGER: Inhibition of human HuH-7 cell growth in a cell viability assay.

[13] = tested on: J82; type: functional, cell-based; settings: Homo sapiens;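 further: growth inhibition of J82 cells, read out with a cell viability assay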
Description: SANGER: Inhibition of human J82 cell growth in a cell viability assay.

[14] = tested on: KOSC-2; type: functional, cell-based; settings: Homo sapiens;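 further: growth inhibition of KOSC-2 cells, read out by a cell viability assay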
Description: SANGER: Inhibition of human KOSC-2 cell growth in a cell viability assay.

[15] = tested on: KP-4; type: functional, cell-based; settings: Homo sapiens;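 further: human KP-4 cells, with growth inhibition read out through a cell viability assay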
Description: SANGER: Inhibition of human KP-4 cell growth in a cell viability assay.

[16] = tested on: LCLC-97TM1; type: functional, cell-based; settings: Homo sapiens;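 further: cell viability assay measuring growth inhibition of human LCLC-97TM1 cells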
Description: SANGER: Inhibition of human LCLC-97TM1 cell growth in a cell viability assay.

[17] = tested on: LN-405; type: functional, cell-based; settings: Homo sapiens
Description: SANGER: Inhibition of human LN-405 cell growth in a cell viability assay.

[18] = tested on: LoVo; type: functional, cell-based; settings: Homo sapiens;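 further: growth inhibition of human LoVo cells, read out with a cell viability assay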
Description: SANGER: Inhibition of human LoVo cell growth in a cell viability assay.

[19] = tested on: MCF7; type: functional, cell-based; settings: Homo sapiens;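 further: growth inhibition of human MCF7 cells, read out with a cell viability assay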
Description: SANGER: Inhibition of human MCF7 cell growth in a cell viability assay.

[20] = tested on: MDA-MB-453; type: functional, cell-based; settings: Homo sapiens
Description: SANGER: Inhibition of human MDA-MB-453 cell growth in a cell viability assay.

[21] = tested on: ME-180; type: functional, cell-based; settings: Homo sapiens;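 further: cell viability assay measuring growth inhibition of ME-180 cells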
Description: SANGER: Inhibition of human ME-180 cell growth in a cell viability assay.

[22] = tested on: NCI-H1573; type: functional, cell-based; settings: Homo sapiens;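 further: growth inhibition of NCI-H1573 cells, read out with a cell viability assay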
Description: SANGER: Inhibition of human NCI-H1573 cell growth in a cell viability assay.

[23] = tested on: NCI-H1755; type: functional, cell-based; settings: Homo sapiens;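 further: cell viability readout used to measure growth inhibition of NCI-H1755 cells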
Description: SANGER: Inhibition of human NCI-H1755 cell growth in a cell viability assay.

[24] = tested on: NCI-H2087; type: functional, cell-based; settings: Homo sapiens;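 further: growth inhibition determined with a cell viability readout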
Description: SANGER: Inhibition of human NCI-H2087 cell growth in a cell viability assay.

[25] = tested on: NCI-H28; type: functional, cell-based; settings: Homo sapiens;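 further: growth inhibition of human NCI-H28 cells, read out as cell viability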
Description: SANGER: Inhibition of human NCI-H28 cell growth in a cell viability assay.

[26] = tested on: NCI-H358; type: functional, cell-based; settings: Homo sapiens;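 further: growth inhibition of NCI-H358 human cells, read out with a cell viability assay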
Description: SANGER: Inhibition of human NCI-H358 cell growth in a cell viability assay.

[27] = tested on: NCI-H650; type: functional, cell-based; settings: Homo sapiens;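 further: growth inhibition of NCI-H650 cells, read out by a viability assay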
Description: SANGER: Inhibition of human NCI-H650 cell growth in a cell viability assay.

[28] = tested on: NCI-H810; type: functional, cell-based; settings: Homo sapiens;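 further: IC50 reflects inhibition of cancer cell line growth, read out with a cell viability assay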
Description: SANGER: Inhibition of human NCI-H810 cell growth in a cell viability assay.

[29] = tested on: OAW-28; type: functional, cell-based; settings: Homo sapiens;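 further: growth inhibition of OAW-28 cells, read out with a cell viability assay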
Description: SANGER: Inhibition of human OAW-28 cell growth in a cell viability assay.

[30] = tested on: Panc1005; type: functional, cell-based; settings: Homo sapiens;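 further: growth inhibition of human PANC-10-05 cells, measured by a cell viability assay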
Description: SANGER: Inhibition of human PANC-10-05 cell growth in a cell viability assay.

[31] = tested on: RCM-1; type: functional, cell-based; settings: Homo sapiens;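 further: growth inhibition of the RCM-1 line, determined with a cell viability readout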
Description: SANGER: Inhibition of human RCM-1 cell growth in a cell viability assay.

[32] = tested on: RD; type: functional, cell-based; settings: Homo sapiens
Description: SANGER: Inhibition of human RD cell growth in a cell viability assay.

[33] = tested on: RERF-LC-MS; type: functional, cell-based; settings: Homo sapiens;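 further: growth inhibition of human RERF-LC-MS cells, read out by a cell viability assay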
Description: SANGER: Inhibition of human RERF-LC-MS cell growth in a cell viability assay.

[34] = tested on: SK-LU-1; type: functional, cell-based; settings: Homo sapiens;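 further: cell viability assay measuring growth inhibition of human SK-LU-1 cells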
Description: SANGER: Inhibition of human SK-LU-1 cell growth in a cell viability assay.

[35] = tested on: SN12C; type: functional, cell-based; settings: Homo sapiens;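 further: growth inhibition of human SN12C cells, measured by a cell viability assay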
Description: SANGER: Inhibition of human SN12C cell growth in a cell viability assay.

[36] = tested on: SNU-387; type: functional, cell-based; settings: Homo sapiens
Description: SANGER: Inhibition of human SNU-387 cell growth in a cell viability assay.

[37] = tested on: SW1417; type: functional, cell-based; settings: Homo sapiens;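 further: growth inhibition of human SW1417 cells, read out with a cell viability assay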
Description: SANGER: Inhibition of human SW1417 cell growth in a cell viability assay.

[38] = tested on: SW1463; type: functional, cell-based; settings: Homo sapiens;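 further: growth inhibition of SW1463 cells, determined with a cell viability assay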
Description: SANGER: Inhibition of human SW1463 cell growth in a cell viability assay.

[39] = tested on: SW1573; type: functional, cell-based; settings: Homo sapiens;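 further: growth inhibition of SW1573 cells, read out with a cell viability assay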
Description: SANGER: Inhibition of human SW1573 cell growth in a cell viability assay.

[40] = tested on: SW1710; type: functional, cell-based; settings: Homo sapiens;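 further: growth inhibition of SW1710 cells, determined with a cell viability assay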
Description: SANGER: Inhibition of human SW1710 cell growth in a cell viability assay.

[41] = tested on: 23132-87; type: functional, cell-based; settings: Homo sapiens
Description: SANGER: Inhibition of human 23132-87 cell growth in a cell viability assay.

[42] = tested on: ACHN; type: functional, cell-based; settings: Homo sapiens;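 further: cell viability read-out used to gauge how strongly growth of human ACHN cells is suppressed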
Description: SANGER: Inhibition of human ACHN cell growth in a cell viability assay.

[43] = tested on: BFTC-909; type: functional, cell-based; settings: Homo sapiens
Description: SANGER: Inhibition of human BFTC-909 cell growth in a cell viability assay.

[44] = tested on: CAL-39; type: functional, cell-based; settings: Homo sapiens;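 further: cell viability assay measuring growth inhibition of CAL-39 cells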
Description: SANGER: Inhibition of human CAL-39 cell growth in a cell viability assay.

[45] = tested on: CAL-51; type: functional, cell-based; settings: Homo sapiens;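 further: human CAL-51 cell line, growth inhibition read out via a cell viability assay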
Description: SANGER: Inhibition of human CAL-51 cell growth in a cell viability assay.

[46] = tested on: CAL-72; type: functional, cell-based; settings: Homo sapiens;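 further: cell viability assay measuring inhibition of proliferation in the CAL-72 cell line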
Description: SANGER: Inhibition of human CAL-72 cell growth in a cell viability assay.

[47] = tested on: YAPC; type: functional, cell-based; settings: Homo sapiens;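 further: growth inhibition of YAPC cells, measured with a cell viability assay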
Description: SANGER: Inhibition of human YAPC cell growth in a cell viability assay.

[48] = tested on: CAPAN-1; type: functional, cell-based; settings: Homo sapiens;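 further: growth suppression of CAPAN-1 cells, read out by a cell viability assay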
Description: SANGER: Inhibition of human CAPAN-1 cell growth in a cell viability assay.

[49] = tested on: COLO-678; type: functional, cell-based; settings: Homo sapiens
Description: SANGER: Inhibition of human COLO-678 cell growth in a cell viability assay.

CN(NC(=O)CC(=O)NN(C)C(=S)c1ccccc1)C(=S)c1ccccc1 [ELESCLOMOL]
IC50 [1]: > 200 nM | IC50 [2]: 17.9 nM | IC50 [3]: 16.8 nM | IC50 [4]: 68.9 nM | IC50 [5]: 149 nM | IC50 [6]: > 200 nM | IC50 [7]: 150 nM | IC50 [8]: > 200 nM | IC50 [9]: 15.4 nM | IC50 [10]: 107 nM | IC50 [11]: > 200 nM | IC50 [12]: 17.6 nM | IC50 [13]: 14.1 nM | IC50 [14]: 5.45 nM | IC50 [15]: 2.17 nM | IC50 [16]: > 200 nM | IC50 [17]: 87.8 nM | IC50 [18]: 78.6 nM | IC50 [19]: 31.4 nM | IC50 [20]: 34.7 nM | IC50 [21]: 16.2 nM | IC50 [22]: 189 nM | IC50 [23]: 13.3 nM | IC50 [24]: > 200 nM | IC50 [25]: 13.7 nM | IC50 [26]: 13.6 nM | IC50 [27]: 36.6 nM | IC50 [28]: 125 nM | IC50 [29]: > 200 nM | IC50 [30]: 110 nM | IC50 [31]: > 200 nM | IC50 [32]: 13.1 nM | IC50 [33]: 8.58 nM | IC50 [34]: 10.3 nM | IC50 [35]: 28.4 nM | IC50 [36]: 9.49 nM | IC50 [37]: > 200 nM | IC50 [38]: > 200 nM | IC50 [39]: 10.7 nM | IC50 [40]: 5.16 nM | IC50 [41]: 24.9 nM | IC50 [42]: > 200 nM | IC50 [43]: 63.5 nM | IC50 [44]: 13.3 nM | IC50 [45]: < 0.781 nM | IC50 [46]: 3.02 nM | IC50 [47]: 70.3 nM | IC50 [48]: > 200 nM | IC50 [49]: 42.5 nM

NC(=O)c1ccc(N(C(N)=O)c2c(F)cccc2F)nc1-c1ccc(F)cc1F [VX-702]
IC50 [1]: > 2000 nM | IC50 [2]: > 2000 nM | IC50 [3]: > 2000 nM | IC50 [4]: > 2000 nM | IC50 [5]: > 2000 nM | IC50 [6]: > 2000 nM | IC50 [7]: > 2000 nM | IC50 [8]: 1770 nM | IC50 [9]: > 2000 nM | IC50 [10]: > 2000 nM | IC50 [11]: > 2000 nM | IC50 [12]: > 2000 nM | IC50 [13]: > 2000 nM | IC50 [14]: > 2000 nM | IC50 [15]: > 2000 nM | IC50 [16]: > 2000 nM | IC50 [17]: > 2000 nM | IC50 [18]: > 2000 nM | IC50 [19]: > 2000 nM | IC50 [20]: > 2000 nM | IC50 [21]: > 2000 nM | IC50 [22]: > 2000 nM | IC50 [23]: > 2000 nM | IC50 [24]: > 2000 nM | IC50 [25]: > 2000 nM | IC50 [26]: > 2000 nM | IC50 [27]: > 2000 nM | IC50 [28]: > 2000 nM | IC50 [29]: > 2000 nM | IC50 [30]: > 2000 nM | IC50 [31]: > 2000 nM | IC50 [32]: > 2000 nM | IC50 [33]: > 2000 nM | IC50 [34]: > 2000 nM | IC50 [35]: > 2000 nM | IC50 [36]: > 2000 nM | IC50 [37]: > 2000 nM | IC50 [38]: > 2000 nM | IC50 [39]: > 2000 nM | IC50 [40]: > 2000 nM | IC50 [41]: > 2000 nM | IC50 [42]: > 2000 nM | IC50 [43]: > 2000 nM | IC50 [44]: > 2000 nM | IC50 [45]: > 2000 nM | IC50 [46]: > 2000 nM | IC50 [47]: > 2000 nM | IC50 [48]: > 2000 nM | IC50 [49]: > 2000 nM
